Assay results: PMC5128750, “Structure–Activity Relationship Studies Using Natural and Synthetic Okadaic Acid/Dinophysistoxin Toxins” (Marine Drugs, 2016)
“And” between values parts separate entries of the source, which are not always exact repeats. Identical values can stand only once. Like-named read-outs stand apart in the source and are kept apart here.

Key:
PP2a [1] = conditions: relative to OA, using data from Aune et al. and Takai et al.; cited from earlier work
PP5 [2] = biological target: T1, PP5 (Homo sapiens, UniProt P53041); assay: PP5 inhibition, fluorimetric DiFMUP assay; assay type: biochemical; design: purchased EMD Millipore Corporation 14-778; host or cells: E. coli; conditions: for IC50: PP5, DiFMUP 50 μM; for Rel. Potency / TEF: PP5, relative to OA
T1 sequence (P53041 1-499): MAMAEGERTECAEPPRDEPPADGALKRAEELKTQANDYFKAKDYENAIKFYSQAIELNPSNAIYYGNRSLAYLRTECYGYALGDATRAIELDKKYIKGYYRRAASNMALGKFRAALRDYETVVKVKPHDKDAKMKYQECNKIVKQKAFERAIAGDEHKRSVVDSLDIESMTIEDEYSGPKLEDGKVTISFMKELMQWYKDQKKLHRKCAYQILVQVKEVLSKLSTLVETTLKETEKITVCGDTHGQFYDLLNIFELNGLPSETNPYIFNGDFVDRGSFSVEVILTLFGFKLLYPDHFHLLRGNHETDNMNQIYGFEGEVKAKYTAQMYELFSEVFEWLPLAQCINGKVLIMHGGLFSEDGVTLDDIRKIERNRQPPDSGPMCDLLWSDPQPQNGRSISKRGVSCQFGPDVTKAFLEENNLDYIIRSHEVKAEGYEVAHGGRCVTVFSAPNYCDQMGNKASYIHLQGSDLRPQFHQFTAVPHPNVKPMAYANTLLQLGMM
Protocol: Figure 3 Effect of various DSP toxins on protein phosphatase activity. The activities of protein phosphatases (A) PP2a, (B) PP1, and (C) PP5 were assessed in the presence of various concentrations of natural OA, natural DTX1, natural DTX2, synthetic DTX2, or synthetic 2-epi-DTX2. All data (mean ± SE; n = 3 or 4) were normalized to the control. […], variable slope, non-linear dose-response analysis was performed and IC50 and 95% confidence interval values were calculated (Table 2).
Preliminary studies were conducted by Millipore (EMD Millipore Corporation, Darmstadt, Germany) using their PhosphataseProfiler that assessed the activities of 21 human and yeast phosphatases in the presence of DTX2. Phosphatase sensitivities to DTX2 were more extensively characterized using 96-well fluorescence-based assays in the presence of various natural and synthetic OA/DTXs. Briefly, the assay tests the ability of toxins to inhibit the activity of purified PP2A (EMD Millipore Corporation, Darmstadt, Germany, cat. #14-111; human red blood cells), purified PP1 (EMD Millipore Corporation, Darmstadt, Germany, cat. #14-110; rabbit skeletal muscle), or purified PP5 (EMD Millipore Corporation, Darmstadt, Germany, cat. #14-778; recombinant enzyme expressed in E. coli cells) against the fluorimetric substrate, 6,8-difluro-4-methyl umbelliferyl phosphate (DiFMUP; 50 μM final) (Invitrogen ThermoFisher Scientific, Waltham, MA, USA, cat. #D6567). DiFMUP solutions were preincubated with toxins or vehicle controls (all containing 1% DMSO final) for 10 min prior to addition of one of the PP enzymes (0.4, 0.4, and 0.02 units/well for PP2a, PP1, and PP5). PP2a assays were performed in Tris-HCl (40 mM, pH 8.4), MgCl2 (34 mM), EDTA (4 mM), and DTT (4 mM), PP1 assays were performed in Tris-HCl (100 mM, pH 7.5), MnCl2 (0.5 mM), EDTA (0.2 mM), DTT (4 mM) and BSA (0.4 mg/mL), and PP5 assays were performed in HEPES (57 mM, pH 7.2), NaCl (150 mM), EDTA (1 mM), MnCl2 (1 mM), DTT (0.167 mM), glycerol (0.83%), BSA (0.167 mg/mL), Brij-35 (0.002%) (EMD Millipore Corporation, Darmstadt, Germany, pers. comm.). All reactions (50 μL) were performed in black, 96-well, half area plates (Corning Incorporated, Corning, NY, USA) for 2 h at 35 °C with 5 s orbital shaking (ca. 600 rpm) just prior to each reading (every 2 min). PP activity was determined by measuring the fluorescence (excitation 360 nm, emission 470 nm) of each well using a fluorometric plate reader (Fluostar, BMG Lab Technologies, Ortenberg, Germany). All data (mean ± SE, n ≥ 3) are presented as normalized percentages relative to vehicle controls (100%). IC50 determinations were calculated using four-parameter, variable slope, non-linear regression analysis (GraphPad Prism, ver. 5.0c, San Diego, CA, USA).

PP2A [3] = biological target: T2, PP2A (Homo sapiens, UniProt P67775); assay: biochemical; assay type: biochemical
T2 construct: purified PP2A (EMD Millipore Corporation, Darmstadt, Germany, cat. #14-111; human red blood cells); purchased EMD Millipore Corporation 14-111; host or cells: human red blood cells (tissue-purified)

[4] = test system: Jurkat T lymphocyte cells; assay: cells; assay type: cell-based, human
PP1 = assay type: biochemical, rabbit
mice = conditions: relative to OA, cited from earlier work; for TEF (European Food Safety Authority): based on LD50 values from exposed mice
[5] = test system: CD45, DUSP22, HePTP, LMPTP-A, LMPTP-B, MKP5, PTPMEG1, PTP-MEG2, PTP-1B, PTPN22, PTPβ, RPTPμ, SHP-1, SHP-2, TCPTP, TMDP, VHR, YopH; assay type: biochemical, human and yeast; conditions: 200 nM, n = 2
PP1α = biological target: T3, PP1α (Homo sapiens, UniProt P62136); assay type: biochemical; conditions: 200 nM, n = 2
T3 construct: purchased EMD Millipore Corporation (PhosphataseProfiler service)

PP2A [6] = biological target: T2, PP2A; assay type: biochemical; conditions: 200 nM, n = 2
PP5 [7] = biological target: T1, PP5; assay type: biochemical; design: purchased EMD Millipore Corporation (PhosphataseProfiler service); conditions: 200 nM, n = 2

T2 sequence (P30153 2-589): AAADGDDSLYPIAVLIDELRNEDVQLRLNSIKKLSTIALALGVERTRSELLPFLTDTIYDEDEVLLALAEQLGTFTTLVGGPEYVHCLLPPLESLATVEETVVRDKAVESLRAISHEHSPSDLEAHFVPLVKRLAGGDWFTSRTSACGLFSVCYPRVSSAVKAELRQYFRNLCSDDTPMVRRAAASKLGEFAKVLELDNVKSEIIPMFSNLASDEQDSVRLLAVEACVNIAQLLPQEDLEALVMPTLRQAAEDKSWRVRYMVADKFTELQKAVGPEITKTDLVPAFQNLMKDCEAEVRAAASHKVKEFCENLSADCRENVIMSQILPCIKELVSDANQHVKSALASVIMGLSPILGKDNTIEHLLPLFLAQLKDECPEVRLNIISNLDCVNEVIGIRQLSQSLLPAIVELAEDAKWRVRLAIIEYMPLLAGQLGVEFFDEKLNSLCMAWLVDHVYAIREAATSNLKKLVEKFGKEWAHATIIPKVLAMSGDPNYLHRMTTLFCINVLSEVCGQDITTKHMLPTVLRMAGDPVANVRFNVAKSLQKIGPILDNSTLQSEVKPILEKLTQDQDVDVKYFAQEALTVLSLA
T2 sequence (P67775 whole entry): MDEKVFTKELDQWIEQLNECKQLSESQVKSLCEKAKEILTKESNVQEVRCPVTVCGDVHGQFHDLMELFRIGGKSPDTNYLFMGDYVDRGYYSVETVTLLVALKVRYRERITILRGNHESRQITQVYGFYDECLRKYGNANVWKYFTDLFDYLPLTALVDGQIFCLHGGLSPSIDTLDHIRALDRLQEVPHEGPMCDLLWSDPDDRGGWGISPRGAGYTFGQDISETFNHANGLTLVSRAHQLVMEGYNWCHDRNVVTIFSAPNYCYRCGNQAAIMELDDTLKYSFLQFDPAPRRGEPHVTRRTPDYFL
T3 sequence (P62136 whole entry): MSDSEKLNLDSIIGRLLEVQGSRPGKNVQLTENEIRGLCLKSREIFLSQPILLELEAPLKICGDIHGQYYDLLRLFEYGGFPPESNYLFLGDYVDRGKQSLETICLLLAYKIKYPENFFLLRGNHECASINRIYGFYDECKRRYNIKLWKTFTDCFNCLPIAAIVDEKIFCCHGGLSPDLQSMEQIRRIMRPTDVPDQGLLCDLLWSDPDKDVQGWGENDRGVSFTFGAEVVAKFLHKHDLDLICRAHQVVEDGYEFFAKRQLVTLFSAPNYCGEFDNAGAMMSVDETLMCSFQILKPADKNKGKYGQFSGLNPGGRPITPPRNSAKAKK

SMILES | TEF by Huhn et al. (PP2a [1]) | IC50 (PP5 [2]) | Rel. Potency / TEF (PP5 [2]) | IC50 (PP2A [3]) | Rel. Potency / TEF (PP2A [3]) | Rel. Potency (as per 48 h Data) / TEF [4] | EC50 ([4]; Homo sapiens, Jurkat, 24 h) [nM] | EC50 ([4]; Homo sapiens, Jurkat, 48 h) [nM] | EC50 ([4]; Homo sapiens, Jurkat, 72 h) [nM] | IC50 (PP1) [nM] | Rel. Potency / TEF (PP1) | TEF (European Food Safety Authority) (mice) | Inhibition of phosphatase activity [5] | Inhibition of phosphatase activity (PP1α) | Inhibition of phosphatase activity (PP2A [6]) | TEF proposed by Aune et al. (mice) | Inhibition of phosphatase activity (PP5 [7]) | IC50 (PP2A [3]; IC50) | EC50 [4]
C=C1C(O)C2OC3(CCC(C=CC(C)C4CC(C)=CC5(OC(CC(C)(O)C(=O)O)CCC5O)O4)O3)CCC2OC1C(O)CC(C)C1OC2(CCC1C)OCCCC2C (centres unmarked) [nat. DTX1, Dinophysistoxin-1] | 1.58 | 1.3 nM | 1.8 and 1.769 | 0.31 nM and 0.306 nM | 1.5 and 1.523 | 0.9 and 0.87 | 24.6 | 22.2 | 11.4 | 34.8 | 0.72 and 0.724 | 1 | – | – | – | – | – | – | –
C=C1C(O)C2OC3(CCC(C=CC(C)C4CC(C)=CC5(OC(CC(C)(O)C(=O)O)CCC5O)O4)O3)CCC2OC1C(O)CC(C)C1CCCC2(OCCCC2C)O1 (centres unmarked) [nat. DTX2, Dinophysistoxin-2] | 0.48 | 5.2 nM and 5.25 nM | 0.438 | 0.99 nM and 0.987 nM | 0.472 | 1.6 and 1.58 | – | – | – | 76.4 | 0.330 | 0.6 | only PP1α, PP2a, and PP5 were inhibited | inhibited | inhibited | 0.6 | inhibited | – | –
C=C1[C@@H](O)[C@@H]2O[C@]3(CC[C@H](/C=C/[C@@H](C)[C@@H]4CC(C)=C[C@@]5(O[C@H](C[C@@](C)(O)C(=O)O)CC[C@H]5O)O4)O3)CC[C@H]2O[C@@H]1[C@@H](O)C[C@H](C)[C@H]1O[C@@]2(CCCCO2)CC[C@H]1C [nat. OA, Okadaic Acid] | – | 2.3 nM | 1.000 | – | 1.000 | 1.000 | 32.8 | 19.5 | 9.16 | 25.2 | 1.000 | 1 | – | – | – | – | – | 0.47 nM and 0.466 nM | –
C=C1C(O)C2OC3(CCC(C=CC(C)C4CC(C)=CC5(OC(CC(C)(O)C(=O)O)CCC5O)O4)O3)CCC2OC1C(O)CC(C)C1CCCC2(OCCCC2C)O1 (stereo not drawn) [syn. 2-epi-DTX2, 2-epi-dinophysistoxin-2] | – | 541 nM | 0.004 | 137 nM | 0.003 | 0.004 | – | – | – | 3110 | 0.008 | – | – | – | – | – | – | – | 4750 nM and 4260 nM and 3740 nM
C=C1C(O)C2OC3(CCC(C=CC(C)C4CC(C)=CC5(OC(CC(C)(O)C(=O)O)CCC5O)O4)O3)CCC2OC1C(O)CC(C)C1CCCC2(OCCCC2C)O1 (stereo not drawn) [syn. DTX2, Dinophysistoxin-2] | – | 4 nM and 3.95 nM | 0.582 | 1.35 nM | 0.345 | 1.1 and 1.07 | – | – | – | 82.6 | 0.305 | – | – | – | – | – | – | – | 21.8 nM and 18.2 nM and 15.4 nM
